# What was measured:
# Etk [1] = biological target: T1, Etk (Homo sapiens, UniProt P51813); assay: Etk autophosphorylation assay (in vitro kinase assay); type: biochemical; details: purified Etk, 33P-ATP, 30 min
# T1 construct: purchased Millipore Inc (Dundee, UK)
# T1 sequence (P51813 1-675): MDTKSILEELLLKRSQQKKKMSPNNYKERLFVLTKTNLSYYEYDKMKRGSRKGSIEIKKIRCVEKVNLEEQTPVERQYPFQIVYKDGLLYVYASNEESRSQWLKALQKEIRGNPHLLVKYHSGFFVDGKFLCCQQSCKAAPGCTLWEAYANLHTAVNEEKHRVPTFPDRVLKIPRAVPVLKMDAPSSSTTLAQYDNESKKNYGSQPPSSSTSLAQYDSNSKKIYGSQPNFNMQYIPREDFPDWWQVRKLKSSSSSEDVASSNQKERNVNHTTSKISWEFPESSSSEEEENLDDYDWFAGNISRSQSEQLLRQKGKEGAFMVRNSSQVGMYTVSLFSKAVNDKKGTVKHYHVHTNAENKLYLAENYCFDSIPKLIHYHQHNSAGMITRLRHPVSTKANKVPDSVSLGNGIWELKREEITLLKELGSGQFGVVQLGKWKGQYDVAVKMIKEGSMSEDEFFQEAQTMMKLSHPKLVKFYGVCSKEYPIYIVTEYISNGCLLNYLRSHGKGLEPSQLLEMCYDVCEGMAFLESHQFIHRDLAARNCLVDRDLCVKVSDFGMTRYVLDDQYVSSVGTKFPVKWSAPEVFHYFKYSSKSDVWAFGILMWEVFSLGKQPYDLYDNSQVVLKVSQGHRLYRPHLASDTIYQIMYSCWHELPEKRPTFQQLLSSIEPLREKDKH
# Description: Etk autophosphorylation activity was measured by an in vitro kinase assay. Briefly, purified Etk (100 ng) was mixed with CTA095 in the kinase assay buffer (20 mM Hepes pH 7.55, 10 mM MgCl2, 10 mM MnCl2, 1 mM DTT, 500 μM Na3VO4). The cold ATP (5 µM) and hot r-^33P-ATP (5 µCi) were added to the mixture and the kinase reaction was performed at 30°C for 30 min. The reactions were terminated with a 4X SDS-PAGE sample buffer, and then loaded onto an 8% SDS-polyacrylamide gel for electrophoresis. The gel was vacuum dried and the ETK auto kinase activity was analyzed with a phosphoimager (Biorad).
# The Btk family of non-receptor tyrosine kinases is characterized by the presence of an autophosphorylation site within the non-catalytic Src homology 3 (SH3) domain. Thus, it was also important to determine the ability of CTA095 to inhibit Etk autophosphorylation. Therefore, an in vitro Etk autophosphorylation assay was established in which purified Etk was mixed with CTA095 in the presence of ^33P-ATP. After 30 min, the reaction was terminated, and the samples were loaded onto an SDS-polyacrylamide gel for electrophoresis. After drying, the gel was analyzed with a phosphoimager.
# [2] = system: pEtk, pSrc, pSTAT3, Myc and BCL2 in PC3-AZD20 cells; assay: Western blot of pEtk, pSrc, pStat3, Myc and BCL2; type: cell-based, human; details: PC3-AZD20, 10 μM
# Description: PC3-AZD20 cells were seeded at 10^6 cells/well in 6 well plates overnight. The cells were treated with AZD0530 or CTA095 at 10 μM. Apoptosis was analyzed using Annexin-V FITC apoptosis detection kit. The mRNA levels of Myc and BCL2 were measured using real-time PCR. pEtk, Etk, pSrc, Src, pStat3, Stat3, Myc and BCL2 levels were measured using the corresponding antibodies through a Western blot.
# Figure 12 CTA095 induces apoptosis in Src inhibitor resistant prostate cancer cells through Myc and BCL2 inhibition. PC3-AZD20 (PC3 cell resistant to 20 μM AZD0530) cells were seeded at 10^6 cells/well in 6 well plates overnight. The cells were treated with AZD0530 or CTA095 at 10 μM. Apoptosis was analyzed using Annexin-V FITC apoptosis detection kit (A). The mRNA levels of Myc and BCL2 were measured using real-time PCR (B). pEtk, Etk, pSrc, Src, pStat3, Stat3, Myc and BCL2 levels were measured using the corresponding antibodies through Western blot (C). Columns, mean; bars, standard deviation, n = 3.
# HUVEC cells = assay: HUVEC cell tube formation assay; type: cell-based; details: 5 μM, 6 h
# Description: HUVEC cells were seeded on mitrogel and treated with CTA095 (0 and 5 μM) for 6 h. Vascular tube formation was visualized using a microscope.
# Figure 8 Inhibition of tube formation and cell migration by CTA095. Inhibition of vascular tube formation of HUVEC endothelial cells (A) and inhibition of migration (wound healing) of PC3 human prostate cancer cells (B) by CTA095. (A) HUVEC cells were seed on mitrogel and treated with CTA095 (0 and 5 μM) for 6 h. Vascular tube formation was visualized using microscope. (B) PC3 cells were grown in 6-well plate to 60% confluency. Then wounds were made and treated with CTA095 (0 and 5 μM). Cell migration (wound healing) was visualized under microscope at the indicated times.
# [3] = system: Src phosphorylation in PC3-Etk cells; assay: Western blot of Src phosphorylation in intact cells; type: cell-based, human; details: 5 μM and 10 μM, 24 h
# Description: Western blotting was performed as described previously. Proteins were detected using the following antibodies: β-actin (Sigma-Aldrich, Saint Louis, MO), Etk (Santa Cruz Inc., Santa Cruz, CA), pEtk; Src, pSrc; Stat3, pStat3. For phospho-Etk, cells were pre-treated with 100 μM pervanadate for 15 min before harvest.
# Figure 4 Inhibition of cell signaling in PC3 cells following treatment with CTA095. Cells were grown in 10 mm plate to 50% confluence and treated with CTA095. Cells were harvested after 24 h. pEtk, Etk, pSrc, Src, pStat3, Stat3, pAkt and Akt levels were measured using the corresponding antibodies by Western blot. One of three similar experiments depicted.
# Etk [4] = biological target: T1, Etk; assay: Kinase inhibition assay (TLC, 33P-ATP); type: biochemical; details: for IC50: Etk
# Description: Kinase inhibition was measured using thin-layer-chromatography (TLC). Briefly, purified kinases (20 nM), the corresponding substrate (500 µM, TSFYGRH for Etk, YIYGSFK for the other kinases), and CTA095 (0–10 µM) were incubated in a kinase reaction (100 mM Hepes, pH 7.4, 10 mM MnCl2, 10 mM MgCl2, 1 mM DTT) for 5 min, and the reaction was started by adding 5 μCi ^33P-labeled ATP. The reaction (10 µl) was incubated at room temperature for 1 h and was stopped by adding 10 μL H3PO4. The radioactivity of the peptide substrate was analyzed using TLC as previously described.
# Having isolated a small molecule that inhibits Etk, the next logical step was to determine its specificity for this enzyme. To accomplish this, purified Etk, Btk, Src and Yes were incubated in a kinase reaction buffer with CTA095 (0–1 μM) in the presence of ^33P-labeled ATP and a peptide (YIYGSFK), previously shown to be an excellent substrate for both BTK and Src family kinases. The kinase activity was measured using TLC technique.
smiles,measurement,setting,value
"O=c1[nH]c2cc3nc(-c4ccc5oc6ccccc6c5c4)n(CCCN4CCCCC4)c3cc2nc1-c1ccccc1 [CTA095, 2-(dibenzo[b,d]furan-2-yl)-7-phenyl-1-(3-(piperidin-1-yl)propyl)-1H-imidazo[4,5-g]quinoxalin-6(5H)-one]",Etk autophosphorylation,Etk [1],inhibit Etk autophosphorylation in a concentration dependent manner
same,"pEtk, pSrc, pSTAT3, Myc and BCL2 protein levels",[2],all down regulated
same,tube formation of HUVEC cells,HUVEC cells,disrupted
same,Src phosphorylation,[3],significantly inhibited
same,IC50,Etk [4]; TLC assay,60 nM
same,IC50,"Etk [4]; TLC, peptide YIYGSFK, 33P-ATP",~60 nM
same,Etk inhibition,"Etk [4]; compound 1 μM, Etk 20 nM, compared with other CT compounds",significant Etk inhibition

# From paper PMC3744530, “CTA095, a Novel Etk and Src Dual Inhibitor, Induces Apoptosis in Prostate Cancer Cells and Overcomes Resistance to Src Inhibitors” (PLoS ONE, 2013)
